The source of these data is PMC3130079 (2011).

By EC50 is commonly meant the concentration needed to bring the measured effect to its halfway point.

The assay deals with TRPA1 (Mus musculus, UniProt Q8BLA8). The assay can be described thus: Ca2+ imaging and whole-cell patch clamp in TRPA1-transfected CHO cells. It counts as cell-based.
TRPA1, sequence (Q8BLA8 whole entry): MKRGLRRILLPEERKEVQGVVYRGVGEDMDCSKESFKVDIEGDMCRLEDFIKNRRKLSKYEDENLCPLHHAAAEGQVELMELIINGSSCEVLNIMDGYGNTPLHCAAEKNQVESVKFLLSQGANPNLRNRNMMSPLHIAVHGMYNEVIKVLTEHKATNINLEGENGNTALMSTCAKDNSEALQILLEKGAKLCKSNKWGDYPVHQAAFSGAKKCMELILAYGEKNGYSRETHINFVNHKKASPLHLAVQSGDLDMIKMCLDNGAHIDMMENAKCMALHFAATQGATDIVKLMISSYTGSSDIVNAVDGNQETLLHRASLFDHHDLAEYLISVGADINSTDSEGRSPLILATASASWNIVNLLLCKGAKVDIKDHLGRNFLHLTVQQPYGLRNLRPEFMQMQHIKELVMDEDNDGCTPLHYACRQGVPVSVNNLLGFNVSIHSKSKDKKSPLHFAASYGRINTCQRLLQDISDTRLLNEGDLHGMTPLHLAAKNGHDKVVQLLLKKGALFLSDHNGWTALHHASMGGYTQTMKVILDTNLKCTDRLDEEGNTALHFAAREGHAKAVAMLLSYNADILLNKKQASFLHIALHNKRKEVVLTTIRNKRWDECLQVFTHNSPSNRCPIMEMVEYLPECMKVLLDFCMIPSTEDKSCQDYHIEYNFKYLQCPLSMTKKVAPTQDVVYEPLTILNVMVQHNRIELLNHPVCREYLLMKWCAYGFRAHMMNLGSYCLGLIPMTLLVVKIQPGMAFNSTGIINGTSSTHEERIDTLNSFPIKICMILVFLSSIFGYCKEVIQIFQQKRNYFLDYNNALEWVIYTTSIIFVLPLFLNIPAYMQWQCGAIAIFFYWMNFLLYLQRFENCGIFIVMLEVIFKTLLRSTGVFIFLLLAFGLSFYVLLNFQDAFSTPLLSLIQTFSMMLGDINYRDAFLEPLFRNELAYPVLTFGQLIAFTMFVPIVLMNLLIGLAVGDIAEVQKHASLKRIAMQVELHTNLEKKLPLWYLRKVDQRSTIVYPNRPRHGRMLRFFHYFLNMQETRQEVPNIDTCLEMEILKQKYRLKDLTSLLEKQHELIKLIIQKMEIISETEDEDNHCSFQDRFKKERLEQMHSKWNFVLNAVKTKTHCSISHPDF

Regarding `COc1ccc(C(=O)c2c(C)n(CCN3CCOCC3)c3cc(I)ccc23)cc1` [AM630], the EC50 stood at 2000 nM.
